Patent US4376772A, “Use of piperazinyl-imidazo[1,2-a]pyrazines in sedation” (Merck & Co., Inc., priority 1981, dated 1983)

What was measured:
[1] = target: T1, α2-adrenergic receptor ([3H] clonidine binding site in calf cerebral cortex) (Bos taurus, UniProt Q28838); test: α2-adrenergic receptor binding ([3H] clonidine binding site)
T1 construct: from tissue; host or cells: calf cerebral cortex
T1 sequence (Q28838 1-468): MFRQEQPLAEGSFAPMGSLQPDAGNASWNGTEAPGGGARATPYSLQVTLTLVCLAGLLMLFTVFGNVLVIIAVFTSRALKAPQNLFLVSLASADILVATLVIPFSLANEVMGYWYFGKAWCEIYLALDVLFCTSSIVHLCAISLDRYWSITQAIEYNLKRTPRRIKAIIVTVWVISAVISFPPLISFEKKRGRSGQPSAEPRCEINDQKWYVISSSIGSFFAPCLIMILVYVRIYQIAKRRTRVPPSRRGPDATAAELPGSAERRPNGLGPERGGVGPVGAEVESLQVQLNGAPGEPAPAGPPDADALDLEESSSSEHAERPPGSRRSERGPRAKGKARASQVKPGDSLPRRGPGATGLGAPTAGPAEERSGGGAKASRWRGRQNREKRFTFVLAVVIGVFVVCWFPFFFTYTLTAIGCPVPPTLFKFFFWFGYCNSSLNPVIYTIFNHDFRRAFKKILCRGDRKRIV
Method: Binding to the α2 -adrenergic receptor was determined by the method of Lyon and Randall, Life Sciences, 26, 1121 (1980) and also is expressed in Table I as Ki representing the affinity of each compound for the [^3 H] clonidine binding site in calf cerebral cortex.

[2] = target: α1-adrenergic receptor ([3H] prazosin binding site in calf cerebral cortex); test: α1-adrenergic receptor binding ([3H] prazosin binding site)
Method: The α1 - and α2 -adrenergic receptor binding as determined for some of the active compounds of this invention are shown in Table I.
Extent of binding to the α1 -adrenergic receptor was determined by the method of Greengrass and Bremner, Eur. J. Pharmacol., 55, 323 (1979) and is expressed in Table I as Ki, representing the affinity of each compound for the [^3 H] prazosin binding site in calf cerebral cortex.

[3] = tested on: α-Methyldopa (α-MD) Depression of Rat Locomotor Activity; test: Antagonism of α-methyldopa (α-MD) depression of rat locomotor activity; assay type: in vivo, Female Sprague-Dawley rats; conditions: 20-minute period
Description: Female Sprague-Dawley rats (Sprague-Dawley, Madison, Wis.) weighing 55-90 g were used in these studies. The test apparatus consisted of 10 activity chambers in a closed metal cabinet separated into individual compartments measuring 43×43 cm with a solid partition between each chamber. Ventilation in the cabinet was provided by two high speed fans, and background noise was supplied with a Grason-Stadler Noise Generator. The activity chambers were constructed from clear plexiglass cylinders, 30 cm high by 30 cm in diameter. Two infrared photocells were mounted at a height of 3 cm above the floor, the receivers being at the same height and directly opposite. Interruption of either of the beams registered independently as an activity count. The accumulated locomotor activity counts were stored in a microprocessor-based acquisition system and printed out at a preprogrammed interval on an ASR-33 Teletype unit. The decrease in locomotor activity caused by α-MD is most readily demonstrable during the time immediately following introduction of the rats into the test apparatus. Therefore, activity counts were recorded for a 20-minute period, beginning with placement of the animals in the test chambers. Animals with the various treatments were systematically rotated through the chambers. […] Dunnett's test was used for comparison of several treatment groups with a control group and the least significant difference test for comparison of the means of any two treatment groups. A P value of 0.05 (two-sided) was considered as indicating significance.
Animals were pretreated (3 hours, 4 minutes) with α-MD (200 or 400 mg/kg, p.o.), and various doses of 8-(1-piperazinyl)imidazo[1,2-a]pyrazine.2HCl.H2 O (0.11-3.0 mg/kg, sc) 40 minutes prior to testing. Vehicles used in control animals were 1% methylcellulose (in which α-MD was suspended) and saline (in which the experimental compound was dissolved).

[4] = tested on: sedation produced by clonidine; conditions: Drew et al., 1979; cited from earlier work
[5] = tested on: locomotor depressant effects of methyldopa in rats; conditions: Clineschmidt et al., 1980; cited from earlier work
[6] = tested on: clonidine-induced sedation in man; conditions: Autret et al., 1977; cited from earlier work

## Clc1cn2ccnc2c(N2CCNCC2)n1 [Compound 1]
[1]
  Ki: 0.073 µM
[2]
  Ki: 0.25 µM

## Clc1cnc2c(N3CCNCC3)nccn12 [Compound 2]
[1]
  Ki: 0.24 µM
[2]
  Ki: 2.8 µM

## c1cn2ccnc2c(N2CCNCC2)n1 [Compound 3, 8-(1-piperazinyl)imidazo[1,2-a]pyrazine]
[1]
  Ki: 0.015 µM
[2]
  Ki: 3.1 µM

## CN1CCN(c2nc(Cl)cn3ccnc23)CC1 [Compound 4]
[1]
  Ki: 0.121 µM
[2]
  Ki: 0.38 µM

## Cl.Cl.O.c1cn2ccnc2c(N2CCNCC2)n1 [Compound, 8-(1-piperazinyl)imidazo[1,2-a]pyrazine dihydrochloride hydrate]
[3]; experiment 1, compound 0.11 mg/kg s.c. 40 min, with α-MD 400 mg/kg p.o.
  locomotor activity (square roots of activity counts): 5.1 ± 0.5
[3]; experiment 1, compound 0.33 mg/kg s.c. 40 min, with α-MD 400 mg/kg p.o.
  locomotor activity (square roots of activity counts): 8.4 ± 0.9
[3]; experiment 1, compound 1.0 mg/kg s.c. 40 min, with α-MD 400 mg/kg p.o.
  locomotor activity (square roots of activity counts): 11.7 ± 1.3
[3]; experiment 1, compound 3 mg/kg s.c. 40 min after α-MD 400 mg/kg p.o.
  locomotor activity (square roots of activity counts): 11.6 ± 1.3
[3]; experiment 2, compound 0.11 mg/kg s.c. 40 min, with α-MD 200 mg/kg p.o.
  locomotor activity (square roots of activity counts): 8.4 ± 1.1
[3]; experiment 2, compound 0.33 mg/kg s.c. 40 min, with α-MD 200 mg/kg p.o.
  locomotor activity (square roots of activity counts): 9.5 ± 1.2
[3]; experiment 2, compound 1.0 mg/kg s.c. 40 min, with α-MD 200 mg/kg p.o.
  locomotor activity (square roots of activity counts): 11.4 ± 1.2
[3]; experiment 2, compound 3.0 mg/kg s.c. 40 min, with α-MD 200 mg/kg p.o.
  locomotor activity (square roots of activity counts): 12.2 ± 1.2

## COC(=O)[C@@H]1[C@H]2C[C@H]3c4[nH]c5ccccc5c4CCN3C[C@@H]2CC[C@@H]1O [yohimbine]
[4]
  effect on sedation produced by clonidine: antagonizes the sedation produced by clonidine
[5]
  effect on locomotor depressant effects of methyldopa: antagonizes
[6]
  effect on clonidine-induced sedation in man: reduce clonidine-induced sedation in man

## C[C@](N)(Cc1ccc(O)c(O)c1)C(=O)O [α-MD, α-Methyldopa, reference compound]
[3]; experiment 1, α-MD 400 mg/kg p.o. 3 hr + saline s.c.
  locomotor activity (square roots of activity counts): 4.7 ± 0.7
[3]; experiment 2, α-MD 200 mg/kg p.o. 3 hr + saline s.c.
  locomotor activity (square roots of activity counts): 6.8 ± 0.5
